Source: PubChem BioAssay (NCI)
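Cells were grown in 96-well plates and exposed to each compound for 48 hours at five concentrations; endpoints were interpolated linearly between bracketing concentrations, or set to the highest concentration if not reached. GI50 = concentration required for 50% inhibition of growth. Definition used: TGI = concentration required for complete inhibition of growth.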

What was measured:
Experiment in all cases: growth of human tumour cells (NCI), 48 h
NCI-H226 lung = tested on: NCI-H226 lung
MDA-MB-435 = tested on: MDA-MB-435
OVCAR-3 ovarian = tested on: OVCAR-3 ovarian
SNB-75 CNS = tested on: SNB-75 CNS
IGROV1 ovarian = tested on: IGROV1 ovarian
RPMI-8226 leukemia = tested on: RPMI-8226 leukemia
K-562 leukemia = tested on: K-562 leukemia
KM12 colon = tested on: KM12 colon
HCC-2998 colon = tested on: HCC-2998 colon
UACC-257 melanoma = tested on: UACC-257 melanoma
786-0 renal = tested on: 786-0 renal
A549 NSCLC = tested on: A549 NSCLC
PC-3 prostate = tested on: PC-3 prostate
UACC-62 melanoma = tested on: UACC-62 melanoma
CCRF-CEM leukemia = tested on: CCRF-CEM leukemia
SK-MEL-2 melanoma = tested on: SK-MEL-2 melanoma
OVCAR-5 ovarian = tested on: OVCAR-5 ovarian
T-47D breast = tested on: T-47D breast
MCF7 breast = tested on: MCF7 breast
EKVX NSCLC = tested on: EKVX NSCLC
SR leukemia = tested on: SR leukemia
NCI-H23 lung = tested on: NCI-H23 lung
HL-60(TB) leukemia = tested on: HL-60(TB) leukemia
MOLT-4 leukemia = tested on: MOLT-4 leukemia
DU-145 prostate = tested on: DU-145 prostate
TK-10 renal = tested on: TK-10 renal
SK-MEL-5 melanoma = tested on: SK-MEL-5 melanoma
OVCAR-8 ovarian = tested on: OVCAR-8 ovarian
HCT-116 colon = tested on: HCT-116 colon
M14 melanoma = tested on: M14 melanoma
SF-268 CNS = tested on: SF-268 CNS
NCI/ADR-RES ovarian = tested on: NCI/ADR-RES ovarian
SF-539 CNS = tested on: SF-539 CNS
ACHN renal = tested on: ACHN renal
HOP-62 NSCLC = tested on: HOP-62 NSCLC
SF-295 CNS = tested on: SF-295 CNS
SW-620 colon = tested on: SW-620 colon
NCI-H460 lung = tested on: NCI-H460 lung
SN12C renal = tested on: SN12C renal
OVCAR-4 ovarian = tested on: OVCAR-4 ovarian
MDA-MB-231 breast = tested on: MDA-MB-231 breast
HS 578T breast = tested on: HS 578T breast
UO-31 renal = tested on: UO-31 renal
HOP-92 NSCLC = tested on: HOP-92 NSCLC
SNB-19 CNS = tested on: SNB-19 CNS
U251 CNS = tested on: U251 CNS
BT-549 breast = tested on: BT-549 breast
RXF 393 renal = tested on: RXF 393 renal
CAKI-1 renal = tested on: CAKI-1 renal
MALME-3M melanoma = tested on: MALME-3M melanoma
LOX IMVI melanoma = tested on: LOX IMVI melanoma
SK-OV-3 ovarian = tested on: SK-OV-3 ovarian
COLO 205 colon = tested on: COLO 205 colon
SK-MEL-28 melanoma = tested on: SK-MEL-28 melanoma
A498 renal = tested on: A498 renal
HT29 colon = tested on: HT29 colon
HCT-15 colon = tested on: HCT-15 colon
NCI-H522 lung = tested on: NCI-H522 lung

SMILES: CS(=O)(=O)CCNCc1coc(-c2ccc3ncnc(Nc4ccc(OCc5ccccc5)cc4)c3c2)c1
- GI50 (NCI-H226 lung): > 12.8 µM
- TGI (NCI-H226 lung): > 25 µM
- GI50 (MDA-MB-435): 4.11 µM
- TGI (MDA-MB-435): 8.23 µM
- GI50 (OVCAR-3 ovarian): 3.46 µM
- TGI (OVCAR-3 ovarian): 13.7 µM
- GI50 (SNB-75 CNS): 3.92 µM
- TGI (SNB-75 CNS): 10 µM
- GI50 (IGROV1 ovarian): 3.7 µM
- TGI (IGROV1 ovarian): > 20.7 µM
- GI50 (RPMI-8226 leukemia): 4.86 µM
- TGI (RPMI-8226 leukemia): 11.6 µM
- GI50 (K-562 leukemia): 4.54 µM
- TGI (K-562 leukemia): 11 µM
- GI50 (KM12 colon): 4.68 µM
- TGI (KM12 colon): 11.9 µM
- GI50 (HCC-2998 colon): 4.16 µM
- TGI (HCC-2998 colon): 7.91 µM
- GI50 (UACC-257 melanoma): 3.67 µM
- TGI (UACC-257 melanoma): 7.39 µM
- GI50 (786-0 renal): 4.16 µM
- TGI (786-0 renal): 9.12 µM
- GI50 (A549 NSCLC): 5.65 µM
- TGI (A549 NSCLC): > 22 µM
- GI50 (PC-3 prostate): 8.95 µM
- TGI (PC-3 prostate): > 25 µM
- GI50 (UACC-62 melanoma): 4.31 µM
- TGI (UACC-62 melanoma): 8.18 µM
- GI50 (CCRF-CEM leukemia): 4.92 µM
- TGI (CCRF-CEM leukemia): 14.5 µM
- GI50 (SK-MEL-2 melanoma): 4.55 µM
- TGI (SK-MEL-2 melanoma): 8.92 µM
- GI50 (OVCAR-5 ovarian): 4.22 µM
- TGI (OVCAR-5 ovarian): 11.7 µM
- GI50 (T-47D breast): 3.57 µM
- TGI (T-47D breast): 8.03 µM
- GI50 (MCF7 breast): 3.77 µM
- TGI (MCF7 breast): 12.3 µM
- GI50 (EKVX NSCLC): 1.25 µM
- TGI (EKVX NSCLC): > 25 µM
- GI50 (SR leukemia): 4.81 µM
- TGI (SR leukemia): 12.9 µM
- GI50 (NCI-H23 lung): 9.18 µM
- TGI (NCI-H23 lung): > 25 µM
- GI50 (HL-60(TB) leukemia): 4.15 µM
- TGI (HL-60(TB) leukemia): 9.13 µM
- GI50 (MOLT-4 leukemia): 5.2 µM
- TGI (MOLT-4 leukemia): 16.3 µM
- GI50 (DU-145 prostate): 3.75 µM
- TGI (DU-145 prostate): > 25 µM
- GI50 (TK-10 renal): 1.95 µM
- TGI (TK-10 renal): 12.2 µM
- GI50 (SK-MEL-5 melanoma): 3.27 µM
- TGI (SK-MEL-5 melanoma): 6.46 µM
- GI50 (OVCAR-8 ovarian): 8.66 µM
- TGI (OVCAR-8 ovarian): > 25 µM
- GI50 (HCT-116 colon): 3.88 µM
- TGI (HCT-116 colon): 7.53 µM
- GI50 (M14 melanoma): 4.44 µM
- TGI (M14 melanoma): 9.11 µM
- GI50 (SF-268 CNS): 3.35 µM
- TGI (SF-268 CNS): 7.5 µM
- GI50 (NCI/ADR-RES ovarian): 9.47 µM
- TGI (NCI/ADR-RES ovarian): > 25 µM
- GI50 (SF-539 CNS): 4.25 µM
- TGI (SF-539 CNS): 8.82 µM
- GI50 (ACHN renal): 3.69 µM
- TGI (ACHN renal): 17.1 µM
- GI50 (HOP-62 NSCLC): 5.03 µM
- TGI (HOP-62 NSCLC): 11.1 µM
- GI50 (SF-295 CNS): 4.39 µM
- TGI (SF-295 CNS): 9.19 µM
- GI50 (SW-620 colon): 4.34 µM
- TGI (SW-620 colon): 8.34 µM
- GI50 (NCI-H460 lung): 3.86 µM
- TGI (NCI-H460 lung): 8.5 µM
- GI50 (SN12C renal): 3.57 µM
- TGI (SN12C renal): 8.04 µM
- GI50 (OVCAR-4 ovarian): 5.94 µM
- TGI (OVCAR-4 ovarian): > 25 µM
- GI50 (MDA-MB-231 breast): 4.15 µM
- TGI (MDA-MB-231 breast): 8.26 µM
- GI50 (HS 578T breast): 2.45 µM
- TGI (HS 578T breast): 7.66 µM
- GI50 (UO-31 renal): 2.86 µM
- TGI (UO-31 renal): 6.95 µM
- GI50 (HOP-92 NSCLC): 2.62 µM
- TGI (HOP-92 NSCLC): 17.3 µM
- GI50 (SNB-19 CNS): 6.4 µM
- TGI (SNB-19 CNS): > 25 µM
- GI50 (U251 CNS): 4.72 µM
- TGI (U251 CNS): > 14.2 µM
- GI50 (BT-549 breast): 10.9 µM
- TGI (BT-549 breast): > 25 µM
- GI50 (RXF 393 renal): 2.91 µM
- TGI (RXF 393 renal): 7.27 µM
- GI50 (CAKI-1 renal): 3.98 µM
- TGI (CAKI-1 renal): 13.4 µM
- GI50 (MALME-3M melanoma): 4.71 µM
- TGI (MALME-3M melanoma): 9.57 µM
- GI50 (LOX IMVI melanoma): 4.27 µM
- TGI (LOX IMVI melanoma): 8.81 µM
- GI50 (SK-OV-3 ovarian): 1.71 µM
- TGI (SK-OV-3 ovarian): > 16.2 µM
- GI50 (COLO 205 colon): 4.78 µM
- TGI (COLO 205 colon): 9.84 µM
- GI50 (SK-MEL-28 melanoma): 3.83 µM
- TGI (SK-MEL-28 melanoma): 7.49 µM
- GI50 (A498 renal): 1.49 µM
- TGI (A498 renal): 6.25 µM
- GI50 (HT29 colon): 3.4 µM
- TGI (HT29 colon): 7.77 µM
- GI50 (HCT-15 colon): 4.15 µM
- TGI (HCT-15 colon): 9.53 µM
- GI50 (NCI-H522 lung): 3.32 µM
- TGI (NCI-H522 lung): 6.9 µM
